From patent publication US20090197957A1, “Methods and compositions for the treatment of pain” (Nuon Therapeutics, Inc., priority 2005, published 2009)
Where “and” joins values, the source holds several entries; their conditions need not be identical. Equal entries are not always repeated.

Tests used:
[1] = short-term use following coronary artery by-pass surgery; cited from earlier work
[2] = similar adenoma prevention trial; cited from earlier work
[3] = system: acetic acid-induced writhing; test: Analgesia, acetic acid writhing in mice (Assay #503900, Example 1); assay type: in vivo, mouse; details: 30 mg/kg PO, 60 minutes before acetic acid
[4] = patients in a colorectal adenoma prevention trial; cited from earlier work
[5] = system: acetic acid-induced writhing; test: Analgesia, acetic acid writhing in mice (Example 3); assay type: in vivo, mouse; details: 100 mg/kg PO
Protocol: 3-Hydroxyanthranilic acid was evaluated for possible analgesic activity in mouse acetic acid-induced pain response assay.
3-Hydroxyanthranilic acid was purchased from Sigma (USA) by MDS Pharma Services-Taiwan Ltd. and administered orally at the doses of 400, 200 and 100 mg/kg for analgesia, acetic acid-induced writhing assay. 2% Tween 80 was used as the vehicle.
Male CD-1 (Crl.) mice provided by BioLasco Taiwan (under Charles River Laboratories Technology Licensee) were used. Space allocation for 10 animals was 29×18×13 cm. All animals were maintained in a controlled temperature (23° C.-24° C.) and humidity (60%-70%) environment with 12 hours light dark cycles for at least one week in MDS Pharma Services—Taiwan Laboratory prior to use. Free access to standard lab chow for Mice (LabDiet Rodent Diet, PMI Nutrition International, USA) and tap water was granted. All aspects of this work including housing, experimentation and disposal of animals were performed in general accordance with the Guide for the Care and Use of Laboratory Animals (National Academy Press, Washington, D.C., 1996).
Test substance was administered orally to groups of 5 CD-1 (Crl.) derived male or female mice weighing 24±2 g, 2 hour before injection of acetic acid (0.5%, 20 ml/kg IP). Reduction in the number of writhes by 50 percent or more (≧50%) per group of animals observed during the 5 to 10 minute period after acetic acid administration, relative to a vehicle-treated control group, indicates possible analgesic activity.
Test substance was administered orally to groups of 5 mice 1 hour before injection of 0.5% Acetic Acid (20 ml/kg IP). The number of writhing per group of animals observed during the 5 to 10 minute period after acetic acid challenge was observed. Reduction in the number of writhing by 50 percent or more (≧50%) relative to the vehicle-treated control group indicates possible analgesic activity.

CCC(=O)NS(=O)(=O)c1ccc(-c2c(-c3ccccc3)noc2C)cc1 [parecoxib]
incidence of cardiovascular events [1]: increased incidence

Cc1ccc(-c2cc(C(F)(F)F)nn2-c2ccc(S(N)(=O)=O)cc2)cc1 [celecoxib]
risk of adverse cardiovascular events [2]: triple the risk

CC(C)Cc1ccc(C(C)C(=O)O)cc1 (stereo not shown) [Ibuprofen]
No. of Writhing Average ([3]; group of 5 mice): 8
% Inhibition ([3]; relative to vehicle control): (53) %
No. of Writhing Individual ([3]; single mice): 6 and 8 (2×) and 10 (2×)

CS(=O)(=O)c1ccc(C2=C(c3ccccc3)C(=O)OC2)cc1 [Rofecoxib, rofecoxib]
risk of heart attacks or strokes [4]: double the risk

CC(=O)Oc1ccccc1C(=O)O [Aspirin]
No. of Writhing Average ([5]; group of 5 mice): 5
% Inhibition ([5]; relative to vehicle control): (62) %
No. of Writhing Individual ([5]; single mice): 0 and 8 and 3 and 7 and 9

Cc1onc(-c2ccccc2)c1-c1ccc(S(N)(=O)=O)cc1 [valdecoxib]
incidence of cardiovascular events [1]: increased incidence
